These results are taken from patent US3943172A, “Derivatives of 2-amino-(1,2,3,4-tetrahydronaphthalene), the preparation and use thereof” (priority 1972, dated 1976).

The test system of data set [1] is premature heart contractions. The data set can be described thus: oral antiarrhythmic activity in rats using aconitine (dose of aconitine to first extrasystoles). Type of data set: in vivo. The conditions noted are these: 75 mg/kg, 75 minutes before aconitine perfusion, acid addition salts; for % Activity versus Lidocaine: relative to lidocaine; for % Activity versus Procainamide: relative to procainamide. How it is done: The method used for these tests is described hereafter:
Male or female rats with a body-weight ranging from 380 to 450 g.
3.12 μg aconitine nitrate/1 ml physiological saline.
Solution of the compound to be tested:
0.75% in distilled water.
Six random selected animals are required for each compound to be tested. The compound is administered by oral route at the dose of 75 mg/kg (1 ml of the 0.75% solution/100 g of body-weight) 75 minutes before the intravenous perfusion of the aconitine solution is initiated.
Control groups of animals are treated only with distilled water (1 ml/100 g).
60 minutes after the administration of the compound to be tested, the animals are anesthesized by an intraperitoneal injection of Pentobarbital (50 mg/kg) and the jugular vein is dissected.
A catheter is introduced in the vein and fixed by a ligature.
The ECG (D II derivation) is then continuously recorded. The perfusion of the aconitine solution is started 75 minutes after the administration of the compound to be tested.
The volume delivered by the injection device being 0.287 ml/minute, the dose of aconitine nitrate administered is 0.895 μg/minute (0.20 - 0.24 μg/100 g/minute according to the minimal and maximal weight of the animals).
The experience is stopped as soon as the first extrasystoles are appearing and the time elapsed from the beginning of the perfusion is noted.
The results are expressed as the mean total dose of aconitine injected in a group of animals.
The relative activity between a tested compound and a reference substance (lidocaine, procainamide) is computed in the following way: [formula] where: A(x) = activity of tested compound X (in %)
X = mean dose of aconitine in the animals treated by compound X
C = mean dose of aconitine injected in the untreated animals (controls)
R = mean dose of aconitine injected in the animals treated by the reference substances.

Data set [2] has as its system tachycardias and fibrillation of ventricular origin. The conditions noted are these: cited from earlier work; for oral activity: known antiarrhythmic agents, in words.

On to `c1ccc(N(CCCN2CCCCC2)C2CCc3ccccc3C2)cc1` (stereo not drawn) [2 H2 H piperidino, 2-[N-phenyl-N-(γ-piperidinopropyl)]-amino-(1,2,3,4-tetrahydronaphthalene)], for which, in data set [1], the “% Activity versus Lidocaine” value came to 62% and the “% Activity versus Procainamide” value came to 78%.
Regarding `CCN(CC)CC(=O)Nc1c(C)cccc1C` [lidocaine], the oral activity entry in data set [2] was “too low”.
For the compound `CCN(CC)CCCN(c1ccccc1)C1CCc2ccccc2C1` (stereo not drawn) [2 H2 H N-diethyl, 2-[N-phenyl-N-(γ-diethylaminopropyl)]-amino-(1,2,3,4-tetrahydronaphthalene)], in data set [1], the “% Activity versus Lidocaine” value is reported as 563% and the “% Activity versus Procainamide” value was found to be 719%.
For `c1ccc(N(CCCN2CCCC2)C2CCc3ccccc3C2)cc1` (stereo not drawn) [2 H2 H pyrrolidino, 2-[N-phenyl-N-(γ-pyrrolidinopropyl)]-amino-(1,2,3,4-tetrahydronaphthalene)], in that order: 268% and 342%.
In the same order, the values of `COc1ccc2c(c1)CCC(N(CCN(C)C)c1ccccc1)C2` (stereo not drawn) [1 H2 OCH3 N-dimethyl, 2-[N-phenyl-N-(β-dimethylaminoethyl)]-amino-6-methoxy-(1,2,3,4-tetrahydronaphthalene)] are 57% and 72%.
In the same order, the values of `COc1ccc2c(c1)CCC(N(CCN1CCCCC1)c1ccccc1)C2` (stereo not drawn) [1 H2 OCH3 piperidino, 2-[N-phenyl-N-(β-piperidinoethyl)]-amino-6-methoxy-(1,2,3,4-tetrahydronaphthalene)] are 103% and 131%.
With `CNCCCN(c1ccccc1)C1CCc2ccccc2C1` (stereo not drawn) [2 H2 H NH-methyl, 2-[N-phenyl-N-(γ-methylaminopropyl)]-amino-(1,2,3,4-tetrahydronaphthalene)], in data set [1], the “% Activity versus Lidocaine” value amounted to 288% and the “% Activity versus Procainamide” value came to 368%.
For `CCN(CC)CCCN(c1ccccc1)C1CCc2cc(OC)ccc2C1` (stereo not drawn) [2 H2 OCH3 N-diethyl, 2-[N-phenyl-N-(γ-diethylaminopropyl)]-amino-6-methoxy-(1,2,3,4-tetrahydronaphthalene)], in that order: 96% and 123%.
In the same order, the values of `CCNCCCN(c1ccccc1)C1CCc2ccccc2C1` (stereo not drawn) [2 H2 H NH-ethyl, 2-[N-phenyl-N-(γ-ethylaminopropyl)]-amino-(1,2,3,4-tetrahydronaphthalene)] are 703% and 897%.
In the same order, the values of `CNCCC(=O)N(c1ccccc1)C1CCc2ccccc2C1` (stereo not drawn) [2 0 H NH-methyl, 2-[N-phenyl-N-(β-methylaminopropionyl)]-amino-(1,2,3,4-tetrahydronaphthalene)] are 769% and 982%.
In the case of `CN(C)CCCN(c1ccccc1)C1CCc2ccccc2C1` (stereo not drawn) [2 H2 H N-dimethyl, 2-[N-phenyl-N-(γ-dimethylaminopropyl)]-amino-(1,2,3,4-tetrahydronaphthalene)], in data set [1], the “% Activity versus Lidocaine” value came to 41% and the “% Activity versus Procainamide” value is reported as 52%.
As to `CCN(CC)CCNC(=O)c1ccc(N)cc1` [procainamide], in data set [2], the side effects entry is on record as “hypotension” and the oral activity entry is “too short”.
With `CCN(CC)CCN(c1ccccc1)C1CCc2cc(OC)ccc2C1` (stereo not drawn) [1 H2 OCH3 N-diethyl, 2-[N-phenyl-N-(β-diethylaminoethyl)]-amino-6-methoxy-(1,2,3,4-tetrahydronaphthalene)], in data set [1], the “% Activity versus Lidocaine” value is 173% and the “% Activity versus Procainamide” value worked out at 220%.
In the same order, the values of `CCN(CC)CCN(c1ccccc1)C1CCc2ccccc2C1` (stereo not drawn) [1 H2 H N-diethyl, 2-[N-phenyl-N-(β-diethylaminoethyl)]-amino(1,2,3,4-tetrahydronaphthalene)] are 439% and 560%.
